Measured values published in patent US20180319810A1, “SUBSTITUTED BRIDGED UREA ANALOGS AS SIRTUIN MODULATORS” (GlaxoSmithKline Intellectual Property (No.2) Limited, priority 2014, published 2018).

Target: T1, SIRT1 (Homo sapiens, UniProt Q96EB6)
T1 sequence (Q96EB6 1-747): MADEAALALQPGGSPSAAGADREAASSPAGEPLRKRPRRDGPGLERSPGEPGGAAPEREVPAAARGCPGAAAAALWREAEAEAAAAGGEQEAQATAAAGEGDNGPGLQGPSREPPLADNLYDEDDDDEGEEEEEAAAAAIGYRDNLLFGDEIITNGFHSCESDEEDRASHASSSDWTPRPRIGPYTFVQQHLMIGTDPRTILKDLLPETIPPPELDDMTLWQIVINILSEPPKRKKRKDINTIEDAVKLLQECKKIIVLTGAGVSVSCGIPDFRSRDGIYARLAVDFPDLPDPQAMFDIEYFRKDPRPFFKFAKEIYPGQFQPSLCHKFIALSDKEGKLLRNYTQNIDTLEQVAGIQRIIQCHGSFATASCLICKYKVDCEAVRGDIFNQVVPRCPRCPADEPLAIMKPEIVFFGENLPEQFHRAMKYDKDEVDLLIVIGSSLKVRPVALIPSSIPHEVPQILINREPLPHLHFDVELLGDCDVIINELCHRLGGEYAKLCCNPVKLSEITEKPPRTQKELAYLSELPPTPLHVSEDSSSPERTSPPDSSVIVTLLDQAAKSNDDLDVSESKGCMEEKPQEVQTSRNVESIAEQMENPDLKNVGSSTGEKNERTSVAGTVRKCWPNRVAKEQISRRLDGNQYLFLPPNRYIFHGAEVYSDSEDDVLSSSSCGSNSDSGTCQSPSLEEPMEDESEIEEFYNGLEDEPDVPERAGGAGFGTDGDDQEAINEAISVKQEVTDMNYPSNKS
Experiment: Trp mass spectrometry assay of SIRT1 activation
Assay type: biochemical
Settings: Trp peptide Ac-R-H-K-K(Ac)-W-NH2 0.5 μM, 120 μM βNAD+, 10 nM SIRT1, 25 min, 25° C.
Description: Mass spectrometry based assays were used to identify modulators of SIRT1 activity. […] The peptide was labeled with the fluorophore 5TMR (excitation 540 nm/emission 580 nm) at the C-terminus. The sequence of the peptide substrate was based on p53 with several modifications. In addition, the methionine residue naturally present in the sequence was replaced with the norleucine because the methionine may be susceptible to oxidation during synthesis and purification.
The Trp mass spectrometry assay was conducted as follows. […] The SIRT1 protein was obtained by cloning the SirT1 gene into a T7-promoter containing vector, which was then expressed in BL21(DE3) bacterial cells and purified as described in further detail below. Test compound was added at varying concentrations to this reaction mixture and the resulting reactions were monitored. After the 25 minute incubation with SIRT1, 10 μL of 10% formic acid was added to stop the reaction. The resulting reactions were sealed and frozen for later mass spec analysis. The relative SIRT1 activity was then determined by measuring the amount of O-acetyl-ADP-ribose (OAADPR) formed (or, alternatively, the amount of deacetylated Trp peptide generated) by the NAD-dependent sirtuin deacetylation reaction in the presence of varying concentrations of the test compound versus control reactions lacking the test compound.
The degree to which the test agent activated deacetylation by SIRT1 was expressed as EC1.5 (i.e., the concentration of compound required to increase SIRT1 activity by 50% over the control lacking test compound), and Percent Maximum Activation (i.e., the maximum activity relative to control (100%) obtained for the test compound).
This time point was the same as that used for test compounds and, within the linear range, the endpoint represents a change in velocity.
For the above assay, SIRT1 protein was expressed and purified as follows. The SirT1 gene was cloned into a T7-promoter containing vector and transformed into BL21(DE3). The protein was expressed by induction with 1 mM IPTG as an N-terminal His-tag fusion protein at 18° C. overnight and harvested at 30,000×g. Cells were lysed with lysozyme in lysis buffer (50 mM Tris-HCl, 2 mM Tris[2-carboxyethyl]phosphine (TCEP), 10 μM ZnCl2, 200 mM NaCl) and further treated with sonication for 10 min for complete lysis. The protein was purified over a Ni-NTA column (Amersham) and fractions containing pure protein were pooled, concentrated and run over a sizing column (Sephadex S200 26/60 global). The peak containing soluble protein was collected and run on an Ion-exchange column (MonoQ). Gradient elution (200 mM-500 mM NaCl) yielded pure protein. This protein was concentrated and dialyzed against dialysis buffer (20 mM Tris-HCl, 2 mM TCEP) overnight. The protein was aliquoted and frozen at −80° C. until further use.
“NT” means not tested; “ND” means not determinable.

Row | SMILES | TRP Activity (EC1.5, concentration of compound required to increase SIRT1 activity by 50% over control) | TRP MAX RESP (percent maximum fold activation relative to control)
1 | O=C(Nc1ccnc(O[C@H]2CCOC2)n1)N1c2nc(-c3cccc(C(F)(F)F)c3)ncc2N2CC[C@H]1C2 [Example 25, (8S)—N-(2-(((S)-tetrahydrofuran-3-yl)oxy)pyrimidin-4-yl)-2-(3-(trifluoro-methyl)phenyl)-7,8-dihydro-5,8-methanopyrimido[4,5-b][1,4]diazepine-9(6H)-carboxamide] | B (EC1.5 1-25 μM) | A (Fold activation ≥150%)
2 | Cc1ccc2c(NC(=O)N3c4nc(C(=O)N[C@H](C)C(F)(F)F)nc(C)c4N4CC[C@H]3C4)n[nH]c2n1 [Example 60, (8S)-4-methyl-N9-(6-methyl-1H-pyrazolo[3,4-b]pyridin-3-yl)-N2-((R)-1,1,1-trifluoropropan-2-yl)-7,8-dihydro-5,8-methanopyrimido[4,5-b][1,4]diazepine-2,9(6H)-dicarboxamide] | B (EC1.5 1-25 μM) | A (Fold activation ≥150%)
3 | Cc1nc(-c2cccc(C(F)(F)F)c2)nc2c1N1CC[C@@H](C1)N2C(=O)Nc1cnc(OC[C@H](O)CO)nc1 [Example 55, (8S)—N-(2-((R)-2,3-dihydroxypropoxy)pyrimidin-5-yl)-4-methyl-2-(3-(trifluoromethyl)phenyl)-7,8-dihydro-5,8-methanopyrimido[4,5-b][1,4]diazepine-9(6H)-carboxamide] | B (EC1.5 1-25 μM) | A (Fold activation ≥150%)
4 | O=C(Nc1cc(F)cc(-c2cccnc2)c1)N1c2nc(-c3cccc(C(F)(F)F)c3)ncc2N2CC[C@H]1C2 [Example 27, (8S)—N-(3-fluoro-5-(pyridin-3-yl)phenyl)-2-(3-(trifluoromethyl)phenyl)-7,8-dihydro-5,8-methanopyrimido[4,5-b][1,4]diazepine-9(6H)-carboxamide] | A (EC1.5<1 μM) | A (Fold activation ≥150%)
5 | O=C(Nc1cncc(OC[C@H](O)CO)n1)N1c2nc(-c3cccc(C(F)(F)F)c3)ncc2N2CC[C@H]1C2 [Example 37, (8S)—N-(6-((R)-2,3-dihydroxypropoxy)pyrazin-2-yl)-2-(3-(trifluoromethyl)phenyl)-7,8-dihydro-5,8-methanopyrimido[4,5-b][1,4]diazepine-9(6H)-carboxamide] | B (EC1.5 1-25 μM) | A (Fold activation ≥150%)
6 | O=C(Nc1cncc(OC[C@@H](O)CO)c1)N1c2nc(-c3cccc(C(F)(F)F)c3)ncc2N2CC[C@H]1C2 [Example 24, (8S)—N-(5-((S)-2,3-dihydroxypropoxy)pyridin-3-yl)-2-(3-(trifluoromethyl)phenyl)-7,8-dihydro-5,8-methanopyrimido[4,5-b][1,4]diazepine-9(6H)-carboxamide] | B (EC1.5 1-25 μM) | A (Fold activation ≥150%)
7 | Cc1nc(C(=O)N[C@H](C)C(F)(F)F)nc2c1N1CC[C@@H](C1)N2C(=O)Nc1cc(OC[C@H](O)CO)ccn1 [Example 1, (8S)—N9-(4-((R)-2,3-dihydroxypropoxy)pyridin-2-yl)-4-methyl-N2-((R)-1,1,1-trifluoropropan-2-yl)-7,8-dihydro-5,8-methanopyrimido[4,5-b][1,4]diazepine-2,9(6H)-dicarboxamide] | A (EC1.5<1 μM) | A (Fold activation ≥150%)
8 | O=C(NC1CCC1)N1c2nc(-c3cccc(C(F)(F)F)c3)ncc2N2CC[C@H]1C2 [Example 20, (8S)—N-cyclobutyl-2-(3-(trifluoromethyl)phenyl)-7,8-dihydro-5,8-methanopyrimido[4,5-b][1,4]diazepine-9(6H)-carboxamide] | A (EC1.5<1 μM) | A (Fold activation ≥150%)
9 | O=C(Nc1ccnc(OC2CCOCC2)n1)N1c2nc(-c3cccc(C(F)(F)F)c3)ncc2N2CC[C@H]1C2 [Example 19, (8S)—N-(2-((tetrahydro-2H-pyran-4-yl)oxy)pyrimidin-4-yl)-2-(3-(trifluoromethyl)phenyl)-7,8-dihydro-5,8-methanopyrimido[4,5-b][1,4]diazepine-9(6H)-carboxamide] | B (EC1.5 1-25 μM) | A (Fold activation ≥150%)

Continued, values first:

Row | TRP Activity (EC1.5, concentration of compound required to increase SIRT1 activity by 50% over control) | TRP MAX RESP (percent maximum fold activation relative to control) | SMILES
10 | B (EC1.5 1-25 μM) | A (Fold activation ≥150%) | O=C(Nc1ncc(OC[C@@H](O)CO)cn1)N1c2nc(-c3cccc(C(F)(F)F)c3)ncc2N2CCC[C@H]1C2 [Example 93, (9S)—N-(5-((S)-2,3-dihydroxypropoxy)pyrimidin-2-yl)-2-(3-(trifluoromethyl)phenyl)-8,9-dihydro-6H-5,9-methanopyrimido[4,5-b][1,4]diazocine-10(7H)-carboxamide]
11 | A (EC1.5<1 μM) | A (Fold activation ≥150%) | O=C(Nc1cnnc(OC[C@@H](O)CO)c1)N1c2nc(-c3cccc(C(F)(F)F)c3)ncc2N2CCC[C@H]1C2 [Example 108, (9S)—N-(6-((S)-2,3-dihydroxypropoxy)pyridazin-4-yl)-2-(3-(trifluoromethyl)phenyl)-8,9-dihydro-6H-5,9-methanopyrimido[4,5-b][1,4]diazocine-10(7H)-carboxamide]
12 | A (EC1.5<1 μM) | A (Fold activation ≥150%) | O=C(Nc1ccnc(OC[C@H](O)CO)c1)N1c2nc(-c3cccc(C(F)(F)F)c3)ncc2N2CCC[C@H]1C2 [Example 90, (9S)—N-(2-((R)-2,3-dihydroxypropoxy)pyridin-4-yl)-2-(3-(trifluoromethyl)phenyl)-8,9-dihydro-6H-5,9-methanopyrimido[4,5-b][1,4]diazocine-10(7H)-carboxamide]
13 | B (EC1.5 1-25 μM) | A (Fold activation ≥150%) | Cc1ccc2c(NC(=O)N3c4nc(C(=O)NC(CO)C(F)(F)F)ncc4N4CCC[C@H]3C4)n[nH]c2n1 (single isomer, unassigned) [Example 68]
14 | A (EC1.5<1 μM) | A (Fold activation ≥150%) | Cc1nc(-c2cccc(C(F)(F)F)c2)nc2c1N1CCC[C@@H](C1)N2C(=O)Nc1cncc(OC[C@@H](O)CO)c1 [Example 109, (9S)—N-(5-((S)-2,3-dihydroxypropoxy)pyridin-3-yl)-4-methyl-2-(3-(trifluoromethyl)phenyl)-8,9-dihydro-6H-5,9-methanopyrimido[4,5-b][1,4]diazocine-10(7H)-carboxamide]
